Data published in patent US8192962B2, “Processes for detecting toxic substances” (Daikin Industries, Ltd., priority 2001, dated 2012).

Tested on: Genes belonging to other category
Assay: DNA chip mRNA expression in yeast, genes belonging to other category (Table 9)
Type: cell-based, Saccharomyces cerevisiae S288C
Outline: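 Ratios compare mRNA levels in stressed and control S. cerevisiae. Each toxicant was applied for two hours to log-phase cultures at 25° C. at a sub-lethal, growth-inhibiting level; fluorescent cDNA (Cy3- or Cy5-dUTP) was hybridized to a genome-wide yeast chip for over 12 h at 65° C.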

manganese ethylenebis(dithiocarbamate) [(8)]
The level of expressed mRNA in the presence of chemical substance/The level of expressed mRNA in the absence of chemical substance (yeast gene YAR010C): 1.3 | The level of expressed mRNA in the presence of chemical substance/The level of expressed mRNA in the absence of chemical substance (yeast gene YBL005W-A): 1.0 | The level of expressed mRNA in the presence of chemical substance/The level of expressed mRNA in the absence of chemical substance (yeast gene YBL041W): 1.7 | The level of expressed mRNA in the presence of chemical substance/The level of expressed mRNA in the absence of chemical substance (yeast gene YBL043W): 2.1 | The level of expressed mRNA in the presence of chemical substance/The level of expressed mRNA in the absence of chemical substance (yeast gene YBL078C): 1.6 | The level of expressed mRNA in the presence of chemical substance/The level of expressed mRNA in the absence of chemical substance (yeast gene YBR214W): 0.7 | The level of expressed mRNA in the presence of chemical substance/The level of expressed mRNA in the absence of chemical substance (yeast gene YCL020W): 1.7 | The level of expressed mRNA in the presence of chemical substance/The level of expressed mRNA in the absence of chemical substance (yeast gene YCL027W): 0.6 | The level of expressed mRNA in the presence of chemical substance/The level of expressed mRNA in the absence of chemical substance (yeast gene YCR004C): 1.2 | The level of expressed mRNA in the presence of chemical substance/The level of expressed mRNA in the absence of chemical substance (yeast gene YCR071C): 0.9 | The level of expressed mRNA in the presence of chemical substance/The level of expressed mRNA in the absence of chemical substance (yeast gene YCR088W): 0.5 | The level of expressed mRNA in the presence of chemical substance/The level of expressed mRNA in the absence of chemical substance (yeast gene YDL008W): 1.2 | The level of expressed mRNA in the presence of chemical substance/The level of expressed mRNA in the absence of chemical substance (yeast gene YDL238C): 5.8 | The level of expressed mRNA in the presence of chemical substance/The level of expressed mRNA in the absence of chemical substance (yeast gene YDR055W): 1.6 | The level of expressed mRNA in the presence of chemical substance/The level of expressed mRNA in the absence of chemical substance (yeast gene YDR084C): 0.7 | The level of expressed mRNA in the presence of chemical substance/The level of expressed mRNA in the absence of chemical substance (yeast gene YDR085C): 2.0 | The level of expressed mRNA in the presence of chemical substance/The level of expressed mRNA in the absence of chemical substance (yeast gene YDR104C): 1.3 | The level of expressed mRNA in the presence of chemical substance/The level of expressed mRNA in the absence of chemical substance (yeast gene YDR115W): 1.3 | The level of expressed mRNA in the presence of chemical substance/The level of expressed mRNA in the absence of chemical substance (yeast gene YDR259C): 1.4 | The level of expressed mRNA in the presence of chemical substance/The level of expressed mRNA in the absence of chemical substance (yeast gene YDR315C): 1.4 | The level of expressed mRNA in the presence of chemical substance/The level of expressed mRNA in the absence of chemical substance (yeast gene YDR358W): 1.2 | The level of expressed mRNA in the presence of chemical substance/The level of expressed mRNA in the absence of chemical substance (yeast gene YDR388W): 0.8 | The level of expressed mRNA in the presence of chemical substance/The level of expressed mRNA in the absence of chemical substance (yeast gene YDR432W): 0.5 | The level of expressed mRNA in the presence of chemical substance/The level of expressed mRNA in the absence of chemical substance (yeast gene YDR481C): 1.0 | The level of expressed mRNA in the presence of chemical substance/The level of expressed mRNA in the absence of chemical substance (yeast gene YDR510W): 1.5 | The level of expressed mRNA in the presence of chemical substance/The level of expressed mRNA in the absence of chemical substance (yeast gene YEL042W): 0.7 | The level of expressed mRNA in the presence of chemical substance/The level of expressed mRNA in the absence of chemical substance (yeast gene YEL066W): 1.4 | The level of expressed mRNA in the presence of chemical substance/The level of expressed mRNA in the absence of chemical substance (yeast gene YER039C): 0.7 | The level of expressed mRNA in the presence of chemical substance/The level of expressed mRNA in the absence of chemical substance (yeast gene YER107C): 0.8 | The level of expressed mRNA in the presence of chemical substance/The level of expressed mRNA in the absence of chemical substance (yeast gene YER130C): 1.2 | The level of expressed mRNA in the presence of chemical substance/The level of expressed mRNA in the absence of chemical substance (yeast gene YFL022C): 0.8 | The level of expressed mRNA in the presence of chemical substance/The level of expressed mRNA in the absence of chemical substance (yeast gene YFL028C): 1.5 | The level of expressed mRNA in the presence of chemical substance/The level of expressed mRNA in the absence of chemical substance (yeast gene YFL043C): 1.0 | The level of expressed mRNA in the presence of chemical substance/The level of expressed mRNA in the absence of chemical substance (yeast gene YGL158W): 1.3 | The level of expressed mRNA in the presence of chemical substance/The level of expressed mRNA in the absence of chemical substance (yeast gene YGL229C): 0.7 | The level of expressed mRNA in the presence of chemical substance/The level of expressed mRNA in the absence of chemical substance (yeast gene YGR136W): 1.3 | The level of expressed mRNA in the presence of chemical substance/The level of expressed mRNA in the absence of chemical substance (yeast gene YGR189C): 1.0 | The level of expressed mRNA in the presence of chemical substance/The level of expressed mRNA in the absence of chemical substance (yeast gene YGR213C): 2.0 | The level of expressed mRNA in the presence of chemical substance/The level of expressed mRNA in the absence of chemical substance (yeast gene YGR257C): 1.0 | The level of expressed mRNA in the presence of chemical substance/The level of expressed mRNA in the absence of chemical substance (yeast gene YHR004C): 0.9 | The level of expressed mRNA in the presence of chemical substance/The level of expressed mRNA in the absence of chemical substance (yeast gene YHR071W): 1.7 | The level of expressed mRNA in the presence of chemical substance/The level of expressed mRNA in the absence of chemical substance (yeast gene YHR139C): 1.3 | The level of expressed mRNA in the presence of chemical substance/The level of expressed mRNA in the absence of chemical substance (yeast gene YHR142W): 1.3 | The level of expressed mRNA in the presence of chemical substance/The level of expressed mRNA in the absence of chemical substance (yeast gene YIL123W): 0.6 | The level of expressed mRNA in the presence of chemical substance/The level of expressed mRNA in the absence of chemical substance (yeast gene YIL140W): 0.7 | The level of expressed mRNA in the presence of chemical substance/The level of expressed mRNA in the absence of chemical substance (yeast gene YJL073W): 1.0 | The level of expressed mRNA in the presence of chemical substance/The level of expressed mRNA in the absence of chemical substance (yeast gene YJL089W): 1.1 | The level of expressed mRNA in the presence of chemical substance/The level of expressed mRNA in the absence of chemical substance (yeast gene YJL116C): 1.8 | The level of expressed mRNA in the presence of chemical substance/The level of expressed mRNA in the absence of chemical substance (yeast gene YJR004C): 0.4 | The level of expressed mRNA in the presence of chemical substance/The level of expressed mRNA in the absence of chemical substance (yeast gene YJR086W): 1.1
